Assay [1] deals with Phenylethanolamine N-methyltransferase (Homo sapiens) (UniProt P11086). In words: Inhibition of human PNMT by radiochemical assay.
In assay [2] the target is Alpha-2 adrenergic receptor (Rattus norvegicus). Put plainly: Displacement of [3H]clonidine from adrenergic alpha-2 receptor in Sprague-Dawley rat cortex. (In general: Displacement assays read how much labelled ligand stays bound in the presence of the test substance.)
The target of assay [3] is T1, Phenylethanolamine N-methyltransferase (Homo sapiens, UniProt P11086).
T1 sequence (P11086 whole entry): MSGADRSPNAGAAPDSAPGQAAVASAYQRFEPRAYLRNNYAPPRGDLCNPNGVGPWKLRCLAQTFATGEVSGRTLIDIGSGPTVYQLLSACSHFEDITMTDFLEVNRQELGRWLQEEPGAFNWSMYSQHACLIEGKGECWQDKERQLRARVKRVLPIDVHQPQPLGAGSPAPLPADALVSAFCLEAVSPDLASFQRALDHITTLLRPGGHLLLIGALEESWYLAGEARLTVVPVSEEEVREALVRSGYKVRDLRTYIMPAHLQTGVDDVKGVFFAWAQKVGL
In words: Inhibition of human PNMT by radiochemical assay.

Assay [4] is filed under the species Homo sapiens. Put plainly: Selectivity of Ki for human PNMT over Ki for rat alpha2 adrenoceptor.

Compound `CC1Cc2sc3ccccc3c2CN1` (racemic) showed an inhibition constant Ki in assay [1] of 0.067 µM.

In the case of `N#Cc1cc2c(s1)CCNC2`, affinity in assay [2] was put at a Ki of 16 µM.

`CC1Cc2ccc(Br)cc2CN1` (racemic) displayed an inhibitory constant (Ki) in assay [2] of 1.1 µM.

In turn, `NCCc1ccccc1` [PHENETHYLAMINE] gave an inhibition constant Ki in assay [1] of 220 µM.

As to `NCCc1cccs1`, the Ki in assay [3] is 300 µM; in assay [2] it was 1.2 µM. Moreover, the Ratio Ki in assay [4] stood at 0.004.

For `C[C@@H]1Cc2sc(C#N)cc2CN1`, the inhibition constant Ki in assay [2] worked out at 47 µM.

Compound `CC1Cc2ccccc2CN1` (racemic) showed an inhibition constant (Ki) in assay [1] of 1.4 µM.

Consider `CC(=O)c1cc2c(s1)CCNC2`, for which affinity in assay [2] was put at a Ki of 9.8 µM.

For `FC(F)(F)C1Cc2sc(Br)cc2CN1` (stereo not drawn), the inhibition constant Ki in assay [2] is greater than 1000 µM.

In turn, `FC(F)(F)C1Cc2sc3ccccc3c2CN1` (stereo not drawn) registered a Ki in assay [2] greater than 500 µM.

`CC(=O)c1ccc2c(c1)CNCC2` registered a Ki in assay [1] of 5 µM.

With `BrC1=CC2CNCCC2S1` (stereo not drawn), the inhibition constant (Ki) in assay [2] came to 0.38 µM.

Take `NCc1cccs1`: the Ki came to 450 µM in assay [3] and 27 µM in assay [2]. Besides, the Ratio Ki in assay [4] amounted to 0.12.

On to `NC(=O)c1cc2c(s1)CCNC2`, for which, in assay [2], the inhibition constant (Ki) was 4.1 µM.

In assay [2], `FC(F)(F)C1CC2SC=CC2CN1` (stereo not drawn) showed an inhibitory constant (Ki) of 1500 µM.

Regarding `CC1CC2SC=CC2CN1` (stereo not drawn), the Ki in assay [2] worked out at 29 µM.

Compound `C[C@@H]1Cc2sc([N+](=O)[O-])cc2CN1` yielded an inhibitory constant (Ki) in assay [2] of 13 µM.

The compound `Cc1ccc2c(c1)CNCC2` gave a Ki in assay [1] of 2 µM.

`C[C@H]1Cc2sc(C#N)cc2CN1`: the inhibition constant (Ki) in assay [2] was 130 µM.

As for `NC(=O)c1ccc2c(c1)CNCC2`, the Ki in assay [1] turned out to be 72 µM.

For the compound `CC1Cc2sc(Br)cc2CN1` (stereo not drawn), in assay [2], the inhibition constant (Ki) came to 2.3 µM.

The compound `c1cc2c(s1)CCNC2` returned a Ki in assay [2] of 1.5 µM.

`Cc1cc2c(s1)CCNC2` had a Ki in assay [2] of 0.49 µM.

For `NCc1ccsc1`, the figures for the Ki in assay [3] and in assay [2] were 110 µM and 32 µM, respectively. In assay [4], the Ratio Ki was determined as 0.29.

In assay [1], `c1ccc2c(c1)CCNC2` [1,2,3,4-TETRAHYDROISOQUINOLINE] returned a Ki of 5 µM.

Consider `C[C@H]1Cc2sc([N+](=O)[O-])cc2CN1`, for which the inhibition constant (Ki) in assay [2] was found to be 29 µM.

Consider `O=[N+]([O-])C1=CC2CNCCC2S1` (stereo not drawn), for which the affinity in assay [2] corresponds to a Ki of 18 µM.

What is called Ki is a dissociation constant, usually derived from enzyme kinetics or from competition with a known ligand.

(Values after ChEMBL document CHEMBL1140786, “Synthesis of 4,5,6,7-tetrahydrothieno[3,2-c]pyridines and comparison with their isosteric 1,2,3,4-tetrahydroisoquinolines as inhibitors of phenylethanolamine N-methyltransferase” (Bioorg Med Chem, 2008).)
